Assay results taken from patent US20060252030A1, “Fabrication of carbohydrate chips by immobilizing unmodified carbohydrates on derivatized solid surfaces, and their uses” (priority 2005, published 2006).

Experiments:
[1] = biological target: T1, Aleuria aurantia (Cy5-AA) lectin (Aleuria aurantia, UniProt P18891); experiment: Carbohydrate chip incubated with Cy5-AA, fluorescence scanner; assay type: binding; details: carbohydrate on aminooxy or hydrazide chip, FIG. 5(b)
T1 sequence (P18891 1-313): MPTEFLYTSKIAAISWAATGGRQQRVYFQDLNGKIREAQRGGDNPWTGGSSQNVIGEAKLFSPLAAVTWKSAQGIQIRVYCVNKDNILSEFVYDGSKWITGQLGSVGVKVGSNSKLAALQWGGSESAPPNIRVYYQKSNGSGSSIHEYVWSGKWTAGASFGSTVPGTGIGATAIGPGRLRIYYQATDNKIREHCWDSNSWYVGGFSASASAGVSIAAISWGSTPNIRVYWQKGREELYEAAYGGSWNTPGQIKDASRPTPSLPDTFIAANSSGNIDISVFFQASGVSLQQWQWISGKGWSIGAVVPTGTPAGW
Procedure: (§1) A solution (0.1 μl˜1 nl) of carbohydrates including mono-, di-, oligo- and polysaccharides in PBS buffer (pH 4.0-5.0) containing 30-50% glycerol is printed on the above-mentioned chip base by using a micropipette or microarrayer. In this process, the concentration of carbohydrates is preferably between 0.1 mM and 50 mM. After completion of printing, the chip is reacted at 40-60° C. for 8 hours or more, and then washed. Then, the chip is immersed in PBS buffer (pH 7.4) containing 0.1% Tween 20 and 1% BSA (bovine serum albumin) for 1 hour. The fabrication of carbohydrate chips is complete by washing the BSA-treated chip with buffer (pH 7.4) containing 0.1% Tween 20 three times for 15 minutes.
(§2) The fabricated carbohydrate chips are applied for studies on protein-carbohydrate interactions. For these studies, the carbohydrate chips are incubated with non-labeled or fluorophore-labeled proteins in buffer containing 0.1% Tween 20 for 1 hour. Proteins labeled by fluorescent dyes such as Cy3, Cy5 and FITC are commercially available, or can be prepared by reacting proteins with fluorescent dyes. Then, the protein-treated chips are washed with buffer containing 0.1% Tween 20 three times for 10 minutes in order to remove unbound proteins.
(§3) Carbohydrate chips are used for the rapid assessment of carbohydrate-protein interactions, which are involve in various biological processes and are of importance for the development of novel therapeutics, and for the fast diagnosis of carbohydrate-based diseases such as tumors and pathogens. For this purpose, each solution (sodium phosphate buffer containing 30% glycerol, pH 5.0) of twenty one of mono-, di-, oligo- and polysaccharides listed in Table 1 was printed on the solid support coated by aminooxy or hydrazide groups. The carbohydrate chips prepared from the method described in Example 3 were incubated with Cy3-TV, Cy5-AA and FITC-ConA. According to the fluorescence intensity of the spots in chips after detecting with a fluorescence scanner, TV strongly is bound to N,N′-diacetylchitobiose (13), less strongly to GlcNAc (2) and sialyl Le^x (19), and weakly bound to GalNAc (5), LacNAc (15) and NeuNAcLacNAc (18) [see FIG. 5(a)].

[2] = system: Triticum vulgaris (Cy3-TV, also known as wheat germ agglutinin); experiment: Carbohydrate chip incubated with Cy3-TV, fluorescence scanner; assay type: binding; details: carbohydrate on aminooxy or hydrazide chip, FIG. 5(a)
Procedure: as §1, §2, §3

[3] = biological target: ConA (Canavalia ensiformis, UniProt P02866); experiment: Carbohydrate chip incubated with FITC-ConA, fluorescence scanner; assay type: binding; details: carbohydrate on aminooxy or hydrazide chip, FIG. 5(c)
Procedure: as §1, §2
as §3, with “The carbohydrate chips prepared from the method described in Example 3 were incubated with Cy3-TV, Cy5-AA and FITC-ConA.” left out

[4] = system: E. coli ORN178, expressing mannose-binding adhesin on pili; experiment: Carbohydrate chip probed with E. coli pre-incubated with propidium iodide; details: FIG. 5(e)
Procedure: FIG. 5 is a fluorescent image of carbohydrate chips composed of 21 carbohydrates probed with (a) Cy3-TV, (b) Cy5-AA, (c) FITC-ConA, (d) anti-Sialyl Le^x antibody and (e) E. Coli pre-incubated with propidium iodide (PI).
Many bacteria including pathogens express specific carbohydrate-binding proteins on pili. The initial attachment of pathogens to host cells through specific carbohydrate-protein interactions confers pathogenic properties. For example, a mannose-binding protein of type 1 fimbriated E. coli is known to cause common urinary tract infection through its binding to glycans on host cells (Connell, H. et al., Proc. Natl. Acad. Sci. USA 1996, 93, 9827). Thus, carbohydrate chips were also used to detect pathogens for diagnosis. E. coli ORN178, expressing mannose-binding adhesin on pili, binds to spots containing mannose, mannobiose and mannan [see FIG. 5(e)].

[5] = system: anti-sialyl Le^x antibody; experiment: Carbohydrate chip incubated with anti-sialyl Le^x antibody, fluorescence image; assay type: binding; details: FIG. 5(d)
Procedure: as §1, §2
Sialyl Le^x is an important biological recognition marker and an interesting target for drug discovery. […]

binding of TV to immobilized carbohydrate (fluorescence intensity of the spots) [2]	Molecule	binding of AA to immobilized carbohydrate (fluorescence intensity of the spots) [1]	also measured
	C[C@@H]1O[C@@H](O[C@H]2[C@H](O[C@@H]3O[C@H](CO)[C@H](O)[C@H](O)[C@H]3O)[C@@H](CO)OC(O)[C@@H]2O)[C@@H](O)[C@H](O)[C@@H]1O (stereo partly shown) [compound 17, Fucα1,3(Galβ1,4)Glc]	strongly bound	
strongly	CC(=O)N[C@H]1[C@H](O[C@H]2[C@H](O)[C@@H](NC(C)=O)C(O)O[C@@H]2CO)O[C@H](CO)[C@@H](O)[C@@H]1O (stereo partly shown) [compound 13, N,N′-diacetylchitobiose]		
	C[C@H](O)[C@@H](O)[C@@H](O)[C@H](O)C=O [compound 8, fucose]	strongly bound	
weakly bound	CC(=O)N[C@H]1[C@H]([C@H](O)[C@H](O)CO)O[C@@](O[C@H]2[C@@H](O)[C@@H](CO)O[C@@H](O[C@H]3[C@H](O)[C@@H](NC(C)=O)C(O)O[C@@H]3CO)[C@@H]2O)(C(=O)O)C[C@@H]1O (stereo partly shown) [compound 18, NeuNAcα2,3Galβ1,4GlcNAc]		
	Manα1,6Man [compound 16]		binding of ConA to immobilized carbohydrate (fluorescence intensity of the spots) [3]: less strong binding; binding of E. coli ORN178 to carbohydrate spots [4]: binds
weakly bound	Galβ1,4GlcNac [compound 15]		
weakly bound	CC(=O)N[C@H]1C(O)O[C@H](CO)[C@H](O)[C@@H]1O (stereo partly shown) [compound 5, N-acetylgalactosamine]		
	OC[C@H]1O[C@H](O[C@H]2[C@H](O)[C@@H](O)C(O)O[C@@H]2CO)[C@H](O)[C@@H](O)[C@@H]1O (mixture of isomers) [compound 11, Maltose]		binding of ConA to immobilized carbohydrate (fluorescence intensity of the spots) [3]: very weak binding
	Mannan [compound 21]		binding of ConA to immobilized carbohydrate (fluorescence intensity of the spots) [3]: strong binding; binding of E. coli ORN178 to carbohydrate spots [4]: binds
	CC(=O)N[C@H]1[C@H](O[C@H]2[C@@H](O)[C@@H](CO)O[C@@H](O[C@H]3[C@H](O)[C@@H](O)C(O)O[C@@H]3CO)[C@@H]2O)O[C@H](CO)[C@@H](O[C@@H]2O[C@@H](C)[C@@H](O)[C@@H](O)[C@@H]2O)[C@@H]1O[C@@H]1O[C@H](CO)[C@H](O)[C@H](O)[C@H]1O[C@@H]1O[C@@H](C)[C@@H](O)[C@@H](O)[C@@H]1O (stereo partly shown) [compound 20, Fucα1,2Galβ1,3(Fucα1,4)GlcNAcβ1,3Galβ1,4Glc]	strongly bound	
less strongly	CC(=O)N[C@H]1C(O)O[C@H](CO)[C@@H](O)[C@@H]1O (stereo partly shown) [compound 2, N-acetylglucosamine]		

Molecule	binding of TV to immobilized carbohydrate (fluorescence intensity of the spots) [2]	binding of AA to immobilized carbohydrate (fluorescence intensity of the spots) [1]	also measured
CC(=O)N[C@H]1[C@H]([C@H](O)[C@H](O)CO)O[C@@](O[C@H]2[C@@H](O)[C@@H](CO)O[C@@H](O[C@H]3[C@H](O[C@@H]4O[C@@H](C)[C@@H](O)[C@@H](O)[C@@H]4O)[C@@H](NC(C)=O)C(O)O[C@@H]3CO)[C@@H]2O)(C(=O)O)C[C@@H]1O (stereo partly shown) [compound 19, Sialyl Le^x]	less strongly	very weakly bound	recognition by anti-sialyl Le^x antibody (fluorescence image of the chip) [5]: selectively recognized
